Four molecules from ChEMBL document CHEMBL1127074, “Novel hypotensive agents from Verbesina caracasana. 2. Synthesis and pharmacology of caracasanamide” (1993) can be followed below.

Experiment [1] concerns Rattus norvegicus. Briefly: Tested for the change in systolic blood pressure administered at 25 ug/kg intravenously in anesthetized rats. In kind it is functional, Artery.
Experiment [2] deals with Rattus norvegicus. In words: Tested for the change in diastolic blood pressure administered at 25 ug/kg intravenously in anesthetized rats. It is filed as functional, Artery.
The subject of experiment [3] is Rattus norvegicus. Briefly: Tested for change in heart rate administered at 25 uM/kg iv in anesthetized rats. In kind it is functional.
In experiment [4] the test system is Rattus norvegicus. In words: Maximum rate of rise of the left ventricular isovolumetric pressure administered at 25 uM/kg iv in anesthetized rats. In kind it is functional, Heart left ventricle.
The subject of experiment [5] is Rattus norvegicus. Briefly: Tested for the change in diastolic blood pressure administered at 12 ug/kg intravenously in anesthetized rats. In kind it is functional, Artery.
Experiment [6] deals with Rattus norvegicus. Briefly: Tested for the change in systolic blood pressure administered at 12 ug/kg intravenously in anesthetized rats. It is filed as functional, Artery.
Experiment [7] relates to Rattus norvegicus. Briefly: Tested for change in heart rate administered at 12 uM/kg iv in anesthetized rats. It is filed as functional.
The subject of experiment [8] is Rattus norvegicus. Briefly: Maximum rate of rise of the left ventricular isovolumetric pressure administered at 12 uM/kg iv in anesthetized rats. It is filed as functional, Heart left ventricle.
For experiment [9], the system named is Rattus norvegicus. In words: Tested for the change in diastolic blood pressure administered at 5 ug/kg intravenously in anesthetized rats. In kind it is functional, Artery.
Experiment [10] deals with Rattus norvegicus. Briefly: Tested for change in heart rate administered at 5 uM/kg iv in anesthetized rats. In kind it is functional.
Experiment [11] relates to Rattus norvegicus. Briefly: Maximum rate of rise of the left ventricular isovolumetric pressure administered at 5 uM/kg iv in anesthetized rats. It is filed as functional, Heart left ventricle.
For experiment [12], the system named is Rattus norvegicus. Briefly: Tested for the change in systolic blood pressure administered at 5 ug/kg intravenously in anesthetized rats. In kind it is functional, Artery.
For experiment [13], the system named is Rattus norvegicus. Briefly: Tested for the change in diastolic blood pressure administered at 8 ug/kg intravenously in anesthetized rats. It is filed as functional, Artery.
The test system of experiment [14] is Rattus norvegicus. In words: Tested for change in heart rate administered at 8 uM/kg iv in anesthetized rats. It is filed as functional.
The subject of experiment [15] is Rattus norvegicus. Briefly: Maximum rate of rise of the left ventricular isovolumetric pressure administered at 8 uM/kg iv in anesthetized rats. In kind it is functional, Heart left ventricle.
The subject of experiment [16] is Rattus norvegicus. Briefly: Tested for the change in systolic blood pressure administered at 8 ug/kg intravenously in anesthetized rats. In kind it is functional, Artery.

As to `N=C(N)NCCN1CCCCCCC1` [GUANETHIDINE], the Blood pressure with Rattus norvegicus [1] is given as -27 mmHg; with Rattus norvegicus [2], -19 mmHg. Besides, in the experiment with Rattus norvegicus [3], the Heart rate is on record as -18 beats min-1. Also, the dp/dt with Rattus norvegicus [4] is reported as -863 mmHg s-1.

With `C[N+](C)(C)CCCCCC[N+](C)(C)C.[Cl-].[Cl-]` [HEXAMETHONIUM CHLORIDE], the figures for the Blood pressure in the experiment on Rattus norvegicus [5] and in the experiment with Rattus norvegicus [6] were -34 mmHg and -44 mmHg, respectively. Also, the Heart rate in the experiment with Rattus norvegicus [7] is on record as -48 beats min-1. Further, in the experiment on Rattus norvegicus [8], the dp/dt is -4040 mmHg s-1.

On to `COc1ccc(Cc2nccc3cc(OC)c(OC)cc23)cc1OC` [PAPAVERINE], for which the Blood pressure in the experiment with Rattus norvegicus [9] is listed as -18 mmHg; in the experiment on Rattus norvegicus [12] it was -23 mmHg. Besides, the Heart rate in the experiment with Rattus norvegicus [10] is recorded as -21 beats min-1. For the same molecule, the dp/dt in the experiment on Rattus norvegicus [11] is given as -604 mmHg s-1.

As for `COC(=O)[C@H]1[C@H]2C[C@@H]3c4[nH]c5cc(OC)ccc5c4CCN3C[C@H]2C[C@@H](OC(=O)c2cc(OC)c(OC)c(OC)c2)[C@@H]1OC` [RESERPINE], the Blood pressure with Rattus norvegicus [13] is listed as -24 mmHg; with Rattus norvegicus [16], -31 mmHg. Moreover, in the experiment on Rattus norvegicus [14], the Heart rate is on record as -47 beats min-1. For the same molecule, the dp/dt with Rattus norvegicus [15] is reported as -1580 mmHg s-1.
